Data published in the supplement of paper PMC11208160.

Assay: recombinant barcode read abundance after kanamycin selection (control-corrected) (log10(CPM+1)); higher = more efficient recombination; sequences stand for … in AGTGCAGAGAAAATCGGCCAGTTTTCTCTGCCTGCAGTCCGCATGCCGT…AGATTTATGCAGCGGACTGCCTTTCTCCCAAAGTGATAAACCGGACAGTATCATGGACCGGTTTTCCCGGTAATCCGTATTTGCAAGGTTGGTTTCACT; site = the 11-nt target
Procedure: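 Pooled E. coli target-specificity screen for the IS621 bridge recombinase. Each library plasmid pairs an 11-nt target (CT core) with a bridge RNA whose target-binding loop (9-nt LTG + 4-nt RTG) is reprogrammed; the rest of the 177-nt WT IS621 bridge RNA scaffold is fixed. The plasmid is co-electroporated with a WT donor plasmid; recombinase is induced with 0.1 mM IPTG and recombinants are selected on kanamycin. Recombinant barcodes are sequenced, converted to CPM, averaged over two biological replicates and corrected by the unselected control CPM. Molecule = full bridge RNA written as DNA: LTG = specificity nt 1-9, RTG = reverse complement of specificity nt 8-11, in the WT scaffold.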
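Note: IS621 recombinase and bridge RNA in Escherichia coli cells.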

Sequence	recombinant barcode read abundance (log10)
AAGTCTCCTTGGGTTCTAACCTGTTGCAG (site AAGTCTCCTCT)	0.174
AAGTCTCCTTGGGTTCTAACCTGTTGCAG (site GCAATATCTAG)	0.116
AAGTCTCCTTGGGTTCTAACCTGTTGCCT (site AAGACTCCTAG)	0.134
AAGTCTCCTTGGGTTCTAACCTGTTGCCT (site AAGTCTCCTAG)	0.64
AAGTGAGCTTGGGTTCTAACCTGTTGCAG (site AAGTGAGCTCT)	2.69
AAGTGAGCTTGGGTTCTAACCTGTTGCAG (site AATAGAGCTCT)	0.12
AAGTGGACTTGGGTTCTAACCTGTTGCCT (site AAGTCGACTAG)	0.121
AAGTGGACTTGGGTTCTAACCTGTTGCCT (site AAGTGGACTAG)	1.93
AAGTTAGCTTGGGTTCTAACCTGTTGCGG (site AAGTTAGCTCC)	2.28
AAGTTAGCTTGGGTTCTAACCTGTTGCGG (site GGCAACTCTAG)	0.108
AAGTTGACTTGGGTTCTAACCTGTTGCCT (site AAATTGACTAG)	0.378
AAGTTGACTTGGGTTCTAACCTGTTGCCT (site AACTTGACTAG)	0.248
AAGTTGACTTGGGTTCTAACCTGTTGCCT (site AAGTTGACTAG)	1.57
AAGTTGACTTGGGTTCTAACCTGTTGCCT (site AATTTGACTAG)	0.304
AATAACCCTTGGGTTCTAACCTGTTGCCT (site AATAACCCTAG)	1.2
AATAACCCTTGGGTTCTAACCTGTTGCCT (site ACTAACCCTAG)	0.145
AATAACCCTTGGGTTCTAACCTGTTGCCT (site AGTAACCCTAG)	0.146
AATAACCCTTGGGTTCTAACCTGTTGCCT (site ATTAACCCTAG)	0.0794
AATAGCTCTTGGGTTCTAACCTGTTGCCT (site AATAGCTCTAG)	0.82
AATAGCTCTTGGGTTCTAACCTGTTGCCT (site CATAGCTCTAG)	0.0982
AATAGCTCTTGGGTTCTAACCTGTTGCCT (site GATAGCTCTAG)	0.166
AATAGCTCTTGGGTTCTAACCTGTTGCCT (site TATAGCTCTAG)	0.116
AATATCTCTTGGGTTCTAACCTGTTGCCA (site AATATCTCTTG)	0.278
AATATCTCTTGGGTTCTAACCTGTTGCCA (site CTACCTACTCC)	0.144
AATATGCCTTGGGTTCTAACCTGTTGCCT (site AATATGCCTAG)	0.582

Sequence	recombinant barcode read abundance (log10)
AATATGCCTTGGGTTCTAACCTGTTGCCT (site AATCTCCCTAG)	0.0372
AATGCTTCTTGGGTTCTAACCTGTTGCCT (site AATGCTTCTAG)	1.05
AATGCTTCTTGGGTTCTAACCTGTTGCCT (site AATTGTTCTAG)	0.167
AATGGGACTTGGGTTCTAACCTGTTGCCT (site AATGGGACTAG)	1.72
AATGGGACTTGGGTTCTAACCTGTTGCCT (site AATGGGCCTAG)	0.171
AATGGGACTTGGGTTCTAACCTGTTGCCT (site AATGGGGCTAG)	0.222
AATGGGACTTGGGTTCTAACCTGTTGCCT (site AATGGGTCTAG)	0.0882
AATGGGGCTTGGGTTCTAACCTGTTGCCT (site AATGGGACTAG)	0.369
AATGGGGCTTGGGTTCTAACCTGTTGCCT (site AATGGGCCTAG)	0.189
AATGGGGCTTGGGTTCTAACCTGTTGCCT (site AATGGGGCTAG)	0.79
AATGGGGCTTGGGTTCTAACCTGTTGCCT (site AATGGGTCTAG)	0.274
AATGTATCTTGGGTTCTAACCTGTTGCCT (site AATGAATCTAG)	0
AATGTATCTTGGGTTCTAACCTGTTGCCT (site AATGCATCTAG)	0.0382
AATGTATCTTGGGTTCTAACCTGTTGCCT (site AATGGATCTAG)	0.0435
AATGTATCTTGGGTTCTAACCTGTTGCCT (site AATGTATCTAG)	1.17
AATTCGACTTGGGTTCTAACCTGTTGCCT (site AATTCGACTAG)	0.399
AATTCGACTTGGGTTCTAACCTGTTGCCT (site ACTTCGACTAG)	0.0747
AATTCGACTTGGGTTCTAACCTGTTGCCT (site AGTTCGACTAG)	0.222
AATTCGACTTGGGTTCTAACCTGTTGCCT (site ATTTCGACTAG)	0
AATTGTCCTTGGGTTCTAACCTGTTGCTT (site AATTGTCCTAA)	0.246
AATTGTCCTTGGGTTCTAACCTGTTGCTT (site AATTGTCCTAC)	0.257
AATTGTCCTTGGGTTCTAACCTGTTGCTT (site AATTGTCCTAG)	0.0453
AATTGTCCTTGGGTTCTAACCTGTTGCTT (site AATTGTCCTAT)	0.125
AATTGTTCTTGGGTTCTAACCTGTTGCCT (site AATGCTTCTAG)	0.028
AATTGTTCTTGGGTTCTAACCTGTTGCCT (site AATTGTTCTAG)	0.253

Sequence	recombinant barcode read abundance (log10)
AATTTCTCTTGGGTTCTAACCTGTTGCCT (site AATTTCTCTAG)	0.0321
AATTTCTCTTGGGTTCTAACCTGTTGCCT (site CATTTCTCTAG)	0.0907
AATTTCTCTTGGGTTCTAACCTGTTGCCT (site GATTTCTCTAG)	0.496
AATTTCTCTTGGGTTCTAACCTGTTGCCT (site TATTTCTCTAG)	0.0924
ACAAAGACTTGGGTTCTAACCTGTTGCGC (site ACAAAGACTGC)	0.656
ACAAAGACTTGGGTTCTAACCTGTTGCGC (site ACACAGACTGC)	0.242
ACAAAGACTTGGGTTCTAACCTGTTGCGC (site ACAGAGACTGC)	0.326
ACAAAGACTTGGGTTCTAACCTGTTGCGC (site ACATAGACTGC)	0.137
ACAAAGGCTTGGGTTCTAACCTGTTGCGG (site ACAAAAGCTCC)	1.69
ACAAAGGCTTGGGTTCTAACCTGTTGCGG (site ACAAAGGCTCC)	2.51
ACAAGACCTTGGGTTCTAACCTGTTGCAT (site ACAAGACCTAT)	1.47
ACAAGACCTTGGGTTCTAACCTGTTGCAT (site TTCTAGTCTTA)	0.0713
ACAATACCTTGGGTTCTAACCTGTTGCCT (site ACAATACCTAG)	1.16
ACAATACCTTGGGTTCTAACCTGTTGCCT (site ATAATACCTAG)	0.143
ACAATAGCTTGGGTTCTAACCTGTTGCTG (site ACAATAGCTCA)	0.738
ACAATAGCTTGGGTTCTAACCTGTTGCTG (site ACACTAGCTCA)	0.0138
ACAATAGCTTGGGTTCTAACCTGTTGCTG (site ACAGTAGCTCA)	0.0118
ACAATAGCTTGGGTTCTAACCTGTTGCTG (site ACATTAGCTCA)	0.0649
ACAATGACTTGGGTTCTAACCTGTTGCCT (site ACAATGACTAG)	0.904
ACAATGACTTGGGTTCTAACCTGTTGCCT (site ACAGTGACTAG)	0.132
ACACCGCCTTGGGTTCTAACCTGTTGCCT (site ACACCGCCTAG)	0.299
ACACCGCCTTGGGTTCTAACCTGTTGCCT (site CCACCGCCTAG)	0.118
ACACCGCCTTGGGTTCTAACCTGTTGCCT (site GCACCGCCTAG)	0.192
